Reference: patent publication US9707212B2, “S-nitrosoglutathione reductase inhibitors” (Nivalis Therapeutics, Inc., priority 2010, dated 2017)

Legend:
[1] = Mouse pharmacokinetic (PK) study; assay type: in vivo, male BALB/c mice; conditions: mice; for bioavailability: male, BALB/c, mouse, plasma, PO 10 mg/kg, IV 2 mg/kg
Description: The mouse was used to determine the pharmacokinetics of compounds of the invention. This species is widely used to assess the bioavailability of compounds by administering both oral (PO) and intravenous (IV) test articles. Efficacy of the compounds of the invention was compared by assessing plasma exposure in male BALB/c mice either via IV or PO administration at the times of peak activity.
Compounds of the invention were reconstituted in a phosphate buffered saline (PBS)/10% Solutol (HS 15) clear solution resulting in a concentration of 0.2 mg/ml and administered to mice (2 mg/kg) as a single IV dose. Animals were dosed via the lateral tail vein. Blood samples were collected at designated time points (0.083, 0.25, 0.5, 1, 2, 4, 8, 16, 24 hours) by cardiac puncture under isoflurane anesthesia (up to 1 ml blood per animal). The blood was collected into tubes containing Li-Heparin. The blood samples were kept on ice until centrifugation within approximately 30 minutes of collection. The plasma was transferred into labeled polypropylene tubes and frozen at −70° C. until analyzed by LC/MS/MS.
The compounds of the invention were reconstituted in 40% Propylene Glycol/40% Propylene Carbonate/20% of a 5% Sucrose clear solution resulting in a concentration of 2 mg/ml and administered to mice (10 mg/kg) as a single oral dose via gavage. Blood samples were collected at 0.25, 0.5, 1, 2, 4, 8, 12, 16, 20 and 24 hours post dose by cardiac puncture under isoflurane anesthesia. The blood was collected in tubes containing Li-Heparin. The blood samples were kept on ice until centrifugation within approximately 30 minutes of collection. The plasma was transferred into labeled polypropylene tubes and frozen at −70° C. until analyzed by LC/MS/MS.
Plasma samples at each time point were analyzed using a LC-MS/MS with a lower limit of quantification (LLOQ) of 1 ng/ml. Plasma was analyzed to determine the amount of the compound of the invention in each sample and regression curves generated for each compounds of the invention in the relevant matrixes.
WinNonlin analysis was used for calculating PK parameters for both the IV and PO administrations: • PK parameters for IV portion—AUClast; AUCINF; T1/2; Cl; Vss; Cmax; MRT • PK parameters for PO portion—AUClast; AUCINF; T1/2; Cmax; Cl, MRT.
In addition to the above PK parameters, bioavailability (% F) was calculated.

acute DSS-induced IBD = test: Acute prophylactic model of DSS-induced IBD in mice; assay type: in vivo, male C57Bl/6 mice; conditions: for effect on colon injury: mouse model of acute DSS-induced IBD; for decrease of percent of mice with severe colon injury scores via endoscopy, of vehicle control / decrease of percent of mice with severe colon injury scores via histopathology, of vehicle control: prophylactic regimen
Description: Acute and chronic models of dextran sodium sulfate (DSS)-induced IBD in mice were used to explore efficacy of GSNORi against this disease. Acute and chronic DSS-induced IBD are widely used and well characterized models that induce pathological changes in the colon similar to those observed in the human disease. In these models and in human disease, epithelial cells within the crypts of the colon are disrupted, leading to dysfunction of the epithelial barrier and the ensuing tissue inflammation, edema, and ulceration. GSNORi therapy may benefit IBD by restoring s-nitrosoglutathione (GSNO) levels, and thus prevent or reverse the epithelial barrier dysfunction. Experimental IBD was induced by administration of DSS in the drinking water of male C57Bl/6 mice (N=8 to 10 mice per group) for 6 consecutive days. GSNORi was dosed orally at doses of 0.1 to 10 mg/kg/day for 10 days starting two days prior to and continuing two days post DSS exposure. Two days post DSS exposure, the effect of GSNORi was assessed in a blinded fashion via endoscopy and histopathology using a five point scale ranging from a score=0 (normal tissue) through a score=4 (ulcerative tissue damage and marked pathological changes). Levels of circulating cytokines involved in inflammatory pathways were also assessed. The effect of GSNORi was compared to vehicle treated controls. The corticosteroid, prednisolone, was used as the positive control in this study and was administered daily at 3 mg/kg/day via oral dosing. Naïve mice (N=5) were also assessed as a normal tissue control.

[2] = tested on: cigarette smoke-induced COPD; test: Acute (4 day) cigarette smoke exposure COPD model; assay type: in vivo, female C57Bl/6 mice; conditions: oral 10 mg/kg/day for 7 days, acute 4 day smoke model
Protocol: The efficacy of GSNOR inhibitors was assessed in a mouse model of chronic obstructive pulmonary disease (COPD) induced by short duration (4 days or 11 days) of exposure to cigarette smoke. Infiltration of inflammatory cells into the bronchoalveolar lavage fluid (BALF) and BALF levels of chemokines involved in inflammation and tissue turnover/repair were measured to assess the influences of GSNOR inhibitors on some of the early events associated with the initiation and progression of COPD.
Efficacy of GSNOR inhibitors against COPD was explored using acute (4 day) and subchronic (11 day) models of cigarette smoke-induced COPD in mice. […] In animal models, changes in lung pathology are only evident after extended (several months) duration of exposure to cigarette smoke, thus making chronic models prohibitive as effective screening tools. More recently, models exploring inflammatory responses after short duration (2 weeks or less) of smoke exposure in mice have been utilized as tools for screening efficacy and mechanisms of action of novel therapeutics against COPD. The key roles of inflammation in the initiation and progression of COPD, make these short duration models relevant for initial tests of efficacy of novel therapeutics.
Female C57Bl/6 mice (N=8 per group) were exposed to cigarette smoke using a whole body exposure chamber. Mice were exposed daily for 4 consecutive days to 4 cycles of smoke from 6 sequential cigarettes (Kentucky 3R4F without filter) with a 30 minute smoke free interval between cycles. GSNOR inhibitors were administered daily via oral dosing at 10 mg/kg/day for 7 days starting 2 days prior to smoke exposure and continuing 1 day post-exposure. The effects of GSNOR inhibitors were assessed by quantitating the numbers of total cells, leukocytes, and leukocytes differentials in the BALF via light microscopy and the levels of BALF chemokines via ELISA at approximately 24 h after the last smoke exposure. The effect of GSNOR inhibitors were compared to vehicle treated controls. The PDE4 inhibitor, roflumilast, was used as the positive control for the study. A group of naïve mice (N=8) was exposed to air and used as a negative control for the study.

[3] = tested on: cigarette smoke-induced COPD; test: Subchronic (11 day) cigarette smoke exposure COPD model; assay type: in vivo, female C57Bl/6 mice; conditions: oral 1 mg/kg/day for 11 days, subchronic 11 day model
Protocol: The efficacy of GSNOR inhibitors was assessed in a mouse model of chronic obstructive pulmonary disease (COPD) induced by short duration (4 days or 11 days) of exposure to cigarette smoke. Infiltration of inflammatory cells into the bronchoalveolar lavage fluid (BALF) and BALF levels of chemokines involved in inflammation and tissue turnover/repair were measured to assess the influences of GSNOR inhibitors on some of the early events associated with the initiation and progression of COPD. Efficacy of GSNOR inhibitors against COPD was explored using acute (4 day) and subchronic (11 day) models of cigarette smoke-induced COPD in mice. […] In animal models, changes in lung pathology are only evident after extended (several months) duration of exposure to cigarette smoke, thus making chronic models prohibitive as effective screening tools. […] The effects of GSNOR inhibitors were assessed by quantitating the number of total cells, and leukocytes differentials in the BALF via light microscopy at 24 h after the last exposure. The effect of GSNOR inhibitors were compared to vehicle treated controls and expressed as percent inhibition of the cigarette smoke induced increases in BALF cell numbers. […]

[4] = oral 10 mg/kg/day for 10 consecutive days

| SMILES | bioavailability [1] [%] | effect on colon injury (acute DSS-induced IBD) | decrease of percent of mice with severe colon injury scores via endoscopy, of vehicle control (acute DSS-induced IBD; [4]) [%] | decrease of percent of mice with severe colon injury scores via histopathology, of vehicle control (acute DSS-induced IBD; [4]) [%] | further results |
| --- | --- | --- | --- | --- | --- |
| O=c1c(-c2ccc(-c3nnn[nH]3)cc2)c(C(F)(F)F)oc2cc(O)ccc12 [Example 1, 3-(4-(1H-tetrazol-5-yl)phenyl)-7-hydroxy-2-(trifluoromethyl)-4H-chromen-4-one] | 4 to 41 | attenuated colon injury | 75 | 17 |  |
| O=c1c2ccc(O)cc2oc(C(F)(F)F)c1[C@H]1CC[C@H](C(=O)O)CC1 [Example 3, (trans)-4-(7-hydroxy-4-oxo-2-(trifluoromethyl)-4H-chromen-3-yl)cyclohexanecarboxylic acid] | 4 to 41 | attenuated colon injury |  |  | effect on BALF chemokines [2]: restored BALF chemokines towards levels observed in naïve mice; effects on BALF cells compared with roflumilast [2]: comparable to or greater than those observed for roflumilast; inhibition of smoke-induced increase in eosinophils in BALF [2]: 100%; inhibition of smoke-induced increase in leukocytes in BALF [2]: 100%; inhibition of smoke-induced increase in macrophages in BALF [2]: 100%; inhibition of smoke-induced increase in neutrophils in BALF [2]: 100%; inhibition of smoke-induced increase in total cells in BALF [2]: 100%; decrease of percent of mice with severe colon injury scores via endoscopy, of vehicle control (acute DSS-induced IBD; oral 0.1 mg/kg/day for 10 consecutive days): 38%; decrease of percent of mice with severe colon injury scores via endoscopy, of vehicle control (acute DSS-induced IBD; oral 1 mg/kg/day for 10 consecutive days): 25% |
| O=c1[nH]c(-c2ccc(-c3c(C(F)(F)F)oc4cc(O)ccc4c3=O)cc2)no1 [Example 9, 3-(4-(7-hydroxy-4-oxo-2-(trifluoromethyl)-4H-chromen-3-yl)phenyl)-1,2,4-oxadiazol-5(4H)-one] | 4 to 41 |  |  |  |  |
| Cc1sc2cc(O)ccc2c(=O)c1-c1ccc(-c2nnn[nH]2)cc1 [Example 12, 3-(4-(1H-tetrazol-5-yl)phenyl)-7-hydroxy-2-methyl-4H-thiochromen-4-one] | 4 to 41 |  |  |  |  |
| O=C(O)c1ccc(-c2c(C(F)(F)F)oc3cc(O)ccc3c2=O)c(F)c1 [Example 16, 3-fluoro-4-(7-hydroxy-4-oxo-2-(trifluoromethyl)-4H-chromen-3-yl)benzoic acid] | ~44 | attenuated colon injury | 58 | 15 | effects on BAL cells compared with roflumilast [3]: comparable to those of roflumilast |
| O=C(O)c1ccc(-c2c(C(F)(F)F)oc3cc(O)ccc3c2=O)cc1 [comparator compound, 4-(7-hydroxy-4-oxo-2-(trifluoromethyl)-4H-chromen-3-yl)benzoic acid, reference compound] | ~17 |  |  |  | clearance (Cl) relative to Example 16 [1]: about three times faster than Example 16 |
